Reference: PMC8086144, “A novel peptide antagonist of the human growth hormone receptor” (The Journal of Biological Chemistry, 2021)

Key:
hGHR [1] = target: T1, hGHR (Homo sapiens, UniProt P10912); assay: hGH-mediated pSTAT5 in SK-MEL-28 cells, ELISA; type: cell-based; conditions: SK-MEL-28, 20 min, ELISA (pSTAT5A Y694/pSTAT5B Y699), SK-MEL-28 cells co-treated with hGH and 200 nM peptide, Equation 2, triplicate
T1 construct: previously reported to express high levels of endogenous hGHR; host or cells: SK-MEL-28, MALME-3M, IM9
T1 sequence (P10912 19-638): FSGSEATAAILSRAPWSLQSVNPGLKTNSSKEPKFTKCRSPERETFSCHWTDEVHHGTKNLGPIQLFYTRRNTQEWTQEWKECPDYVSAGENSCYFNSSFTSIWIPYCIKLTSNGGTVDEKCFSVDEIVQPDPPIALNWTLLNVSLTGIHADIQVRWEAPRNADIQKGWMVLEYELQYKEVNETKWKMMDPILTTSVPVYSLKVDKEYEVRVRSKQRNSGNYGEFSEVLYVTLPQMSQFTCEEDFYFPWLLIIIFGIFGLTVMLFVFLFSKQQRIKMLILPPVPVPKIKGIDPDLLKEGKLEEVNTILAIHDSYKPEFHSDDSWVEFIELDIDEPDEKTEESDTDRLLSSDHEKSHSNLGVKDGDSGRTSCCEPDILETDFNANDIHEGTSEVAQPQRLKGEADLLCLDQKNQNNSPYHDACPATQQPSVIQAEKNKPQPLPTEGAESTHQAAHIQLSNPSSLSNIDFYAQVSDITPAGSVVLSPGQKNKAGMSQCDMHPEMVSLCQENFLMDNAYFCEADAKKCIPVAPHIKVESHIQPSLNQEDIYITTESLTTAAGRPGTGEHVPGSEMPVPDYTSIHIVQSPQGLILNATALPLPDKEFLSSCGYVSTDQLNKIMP
Description: SK-MEL-28, MALME-3M, and T84 cells were grown and maintained in Eagle's Minimal Essential Medium. IM9 and L cells were grown in RPMI-1640 media and Dulbecco's modified Eagle's medium, respectively. All growth media was supplemented with 10% fetal bovine serum and 1× antibiotic-antimycotic […] solution. Cells were grown at 37 °C under a 5% CO2 atmosphere in a humidified incubator, and growth media was replaced every 48 h during incubation. No hGH was present in or added to the growth media unless specifically indicated. Between 12 to 16 h after seeding, adherent cells (SK-MEL-28, MALME-3M, T84, L cells) were switched to serum-free growth media (no GH) and starved for 4 h before the addition of hGH, bGH (L cells), hPRL (MALME-3M and T84 cells), or buffer at the concentrations noted. Cells were then allowed to incubate for an additional 20 min before being harvested. For suspended cell treatments, IM9 cells were pelleted by centrifugation at 140g for 5 min at room temperature. The supernatant was then removed by aspiration, and the cells were resuspended in serum-free media. The cells were then starved for 4 h at 37 °C under a 5% CO2 atmosphere in a humidified incubator and subsequently treated with hGH, S1H, or both at the indicated concentrations for 20 min before harvesting by centrifugation.
Following treatment, the cells were harvested at the indicated time points, and the total protein was extracted. To affect protein extraction, the treatment media was removed by aspiration, and the cells were washed twice with ice-cold PBS. Following washing, total protein was extracted from the cells using RIPA buffer (100 μl/million cells) supplemented with 1.5× Halt protease and phosphatase inhibitor cocktail. Briefly, chilled RIPA buffer was added to the cells, and the lysis reaction was allowed to incubate for 5 min at 4 °C. Adherent cells were harvested for lysis using a sterile cell scraper. The resultant cell suspensions were sonicated on ice for 60 s with ON (2-s)/OFF (1-s) pulses at 2% power. The cell lysate was then cleared by centrifugation at 8000g for 10 min at 4 °C. Following centrifugation, the supernatant was collected and stored at −80 °C until further use. Sample protein concentration was quantified using a Bradford assay with bovine serum albumin as the protein standard. Absorbance at 595 nm was measured using a Spectramax 250 multimode plate reader (Molecular Devices) and processed using SoftmaxPro v4.7.1 software.
Intracellular pSTAT5A (Y694) and pSTAT5B (Y699) levels were quantified from clarified protein samples using an InstantOne ELISA kit (Thermo Fisher) according to the manufacturer’s instructions. Briefly, 50 μl of protein sample (1 mg/ml) were added to wells containing 50 μl antibody cocktail in a 96-well plate and incubated at room temperature for 2 h with shaking (300 rpm). Following incubation, the wells were washed, and the bound antibodies were detected by adding detection regent and incubating the plate for 1 h at room temperature with shaking (300 rpm). Following incubation, stop reagent was added, and the absorbance was read at 450 nm using a UV-VIS spectrophotometer (Molecular Devices, model M2). All experiments were performed in triplicate. Percent pSTAT5 inhibition was calculated from background-subtracted pSTAT5 levels using Equation 2:(2) %inhibition=100×(pSTAT5hGH−pSTAT5PI)/pSTAT5hGH where pSTAT5hGH is the fold-induction of pSTAT5 upon treatment with hGH alone and pSTAT5PI is the fold-induction of pSTAT5 upon co-treatment with hGH and peptide inhibitor.

hGHR [2] = target: T1, hGHR; assay: hGH-mediated pSTAT5 in IM9 cells, Western blot; type: cell-based; conditions: 200 nM S1H with 2.5 nM hGH, 20 min, Western blot densitometry, n = 3
Description: SK-MEL-28, MALME-3M, and T84 cells were grown and maintained in Eagle's Minimal Essential Medium. IM9 and L cells were grown in RPMI-1640 media and Dulbecco's modified Eagle's medium, respectively. All growth media was supplemented with 10% fetal bovine serum and 1× antibiotic-antimycotic […] solution. Cells were grown at 37 °C under a 5% CO2 atmosphere in a humidified incubator, and growth media was replaced every 48 h during incubation. No hGH was present in or added to the growth media unless specifically indicated. […]
Following treatment, the cells were harvested at the indicated time points, and the total protein was extracted. […] Sample protein concentration was quantified using a Bradford assay with bovine serum albumin as the protein standard. Absorbance at 595 nm was measured using a Spectramax 250 multimode plate reader (Molecular Devices) and processed using SoftmaxPro v4.7.1 software.
Cytosolic fractions from treated cells were thawed on ice, and 80 μg protein was loaded onto polyacrylamide gels for separation by SDS-PAGE. […] Chemiluminescence signals were detected using a GelDoc (BioRad) fluorescence imager. […] Percent inhibition was then measured by subtracting the pSTAT5 band intensity in each lane from the pSTAT5 band intensity of hGH-treated samples. […]

- inhibition at 0.2 µM (hGHR [1]): 98.3%
- suppression of hGH-mediated pSTAT5 (hGHR [2]): 67%
Compound: CC[C@H](C)[C@H](NC(=O)[C@H](Cc1ccc(O)cc1)NC(C)=O)C(=O)N1CCC[C@H]1C(=O)N[C@@H](CCCCN)C(=O)N[C@@H](CCC(=O)O)C(=O)N[C@@H](CCC(N)=O)C(=O)N[C@@H](CCCCN)C(=O)N[C@@H](Cc1ccc(O)cc1)C(=O)N[C@@H](CO)C(=O)N[C@@H](Cc1ccccc1)C(=O)N[C@@H](CC(C)C)C(=O)N[C@@H](CCC(N)=O)C(=O)N[C@@H](CC(N)=O)C(=O)N1CCC[C@H]1C(=O)N[C@@H](CCC(N)=O)C(=O)N[C@H](C(N)=O)[C@@H](C)O [S1H]
